Results as given in ChEMBL document CHEMBL1150491, “Chemistry and pharmacokinetics of diarylthiophenes and terphenyls as selective COX-2 inhibitors” (Bioorg Med Chem Lett, 1996).
One block for each compound: values may come before it.

Key:
[1] = biological target: T1, Prostaglandin G/H synthase 2 (Homo sapiens, UniProt P35354); assay: Compound was evaluated for inhibitory activity against human Prostaglandin G/H synthase 2
T1 sequence (P35354 whole entry): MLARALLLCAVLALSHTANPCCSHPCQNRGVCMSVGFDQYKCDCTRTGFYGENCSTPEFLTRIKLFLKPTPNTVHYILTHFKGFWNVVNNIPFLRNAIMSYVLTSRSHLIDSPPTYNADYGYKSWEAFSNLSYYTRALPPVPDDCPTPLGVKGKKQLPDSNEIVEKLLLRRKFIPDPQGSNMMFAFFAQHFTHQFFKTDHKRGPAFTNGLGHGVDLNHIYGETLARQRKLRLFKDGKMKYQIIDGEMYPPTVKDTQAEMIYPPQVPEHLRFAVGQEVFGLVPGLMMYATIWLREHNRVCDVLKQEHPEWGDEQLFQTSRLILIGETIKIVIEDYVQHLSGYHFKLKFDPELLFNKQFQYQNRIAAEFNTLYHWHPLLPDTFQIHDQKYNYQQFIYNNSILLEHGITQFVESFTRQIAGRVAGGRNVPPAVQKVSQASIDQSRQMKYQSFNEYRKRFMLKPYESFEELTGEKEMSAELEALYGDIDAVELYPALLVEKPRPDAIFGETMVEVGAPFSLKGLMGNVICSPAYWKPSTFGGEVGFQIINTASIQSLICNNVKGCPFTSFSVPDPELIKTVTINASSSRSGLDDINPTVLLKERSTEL

[2] = biological target: T2, Prostaglandin G/H synthase 1 (Ovis aries, UniProt P05979); assay: Compound was evaluated for inhibitory activity against ovine Prostaglandin G/H synthase 1
T2 sequence (P05979 whole entry): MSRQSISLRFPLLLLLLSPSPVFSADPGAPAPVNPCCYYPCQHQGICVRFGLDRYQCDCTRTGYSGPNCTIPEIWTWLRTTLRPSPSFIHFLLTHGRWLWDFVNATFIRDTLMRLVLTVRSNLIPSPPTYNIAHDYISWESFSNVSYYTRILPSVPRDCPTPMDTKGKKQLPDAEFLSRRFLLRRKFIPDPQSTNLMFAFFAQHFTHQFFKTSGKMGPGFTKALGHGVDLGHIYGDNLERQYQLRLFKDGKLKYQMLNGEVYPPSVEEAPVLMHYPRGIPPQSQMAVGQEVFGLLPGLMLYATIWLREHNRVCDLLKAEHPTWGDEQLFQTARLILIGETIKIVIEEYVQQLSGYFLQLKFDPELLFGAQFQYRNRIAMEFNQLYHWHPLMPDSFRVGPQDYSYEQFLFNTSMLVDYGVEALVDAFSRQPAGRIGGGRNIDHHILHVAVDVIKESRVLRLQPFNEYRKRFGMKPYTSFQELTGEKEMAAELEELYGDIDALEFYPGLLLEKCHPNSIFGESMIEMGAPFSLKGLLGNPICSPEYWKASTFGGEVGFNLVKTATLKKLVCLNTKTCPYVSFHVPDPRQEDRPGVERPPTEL

Canis familiaris [3] = assay: Area under curve was evaluated against Beagle dog at a dose of 15 mg/kg after po administration; format: ADME, organism-based, Canis lupus familiaris; parameters: dose 15 mg/kg, route oral; details: in vivo
[4] = Area under curve was evaluated against Cynomolgus monkey at a dose of 15 mg/kg after po administration; format: ADME, organism-based; parameters: dose 15 mg/kg, route oral; details: cercopithecidae, in vivo
[5] = Half life period was evaluated against Sprague-Dawley rats at a dose of 15 mg/kg after iv administration; format: ADME, organism-based; parameters: dose 15 mg/kg, route intravenous; details: rat, in vivo
[6] = Half life period was evaluated in Sprague-Dawley rats at a dose of 15 mg/kg after po administration; format: ADME, organism-based; parameters: dose 15 mg/kg, route oral; details: rat, in vivo
[7] = Maximum concentration was evaluated against man at a dose of 10 mg/kg after po administration; format: ADME, organism-based; parameters: dose 10 mg/kg, route oral; details: human, in vivo
[8] = Maximum time was evaluated against Cynomolgus monkey at a dose of 15 mg/kg after po administration; format: ADME, organism-based; parameters: dose 15 mg/kg, route oral; details: cercopithecidae, in vivo
[9] = Maximum concentration was evaluated against Cynomolgus monkey at a dose of 15 mg/kg after po administration; format: ADME, organism-based; parameters: dose 15 mg/kg, route oral; details: cercopithecidae, in vivo
[10] = Bioavailability was evaluated against Cynomolgus monkey at a dose of 15 mg/kg after po administration; format: ADME, organism-based, Macaca fascicularis; details: in vivo
[11] = Area under curve was evaluated against man at a dose of 10 mg/kg after po administration; format: ADME, organism-based; parameters: dose 10 mg/kg, route oral; details: human, in vivo
[12] = Bioavailability was evaluated against Beagle dog at a dose of 15 mg/kg after po administration; format: ADME, organism-based, Canis lupus familiaris; details: in vivo
[13] = Volume of distribution was evaluated in Sprague-Dawley rats at a dose of 15 mg/kg after iv administration; format: ADME, organism-based; parameters: dose 15 mg/kg, route intravenous; details: rat, in vivo, read-out: Vss
[14] = Oral bioavailability in rat (Sprague-Dawley) (dose 15 mg/kg); format: ADME, organism-based; details: in vivo
Canis familiaris [15] = assay: Maximum time was evaluated against Beagle dog at a dose of 15 mg/kg after po administration; format: ADME, organism-based, Canis lupus familiaris; parameters: dose 15 mg/kg, route oral; details: in vivo
[16] = Plasma clearance was evaluated in Sprague-Dawley rats at a dose of 15 mg/kg after iv administration; format: ADME, organism-based; parameters: dose 15 mg/kg, route intravenous; details: rat
[17] = Time taken to reach maximum concentration in plasma was evaluated in Sprague-Dawley rats at a dose of 15 mg/kg after po administration; format: ADME, organism-based; parameters: dose 15 mg/kg, route oral; details: rat
Canis familiaris [18] = assay: Half life period was evaluated against Beagle dog at a dose of 15 mg/kg after po administration; format: ADME, organism-based, Canis lupus familiaris; parameters: dose 15 mg/kg, route oral; details: in vivo
[19] = Half life period was evaluated against man at a dose of 10 mg/kg after po administration; format: ADME, organism-based; parameters: dose 10 mg/kg, route oral; details: human, in vivo
[20] = Maximum time was evaluated against man at a dose of 10 mg/kg after po administration; format: ADME, organism-based; parameters: dose 10 mg/kg, route oral; details: human, in vivo
Canis familiaris [21] = assay: Maximum concentration was evaluated against Beagle dog at a dose of 15 mg/kg after po administration; format: ADME, organism-based, Canis lupus familiaris; parameters: dose 15 mg/kg, route oral; details: in vivo
[22] = Half life period was evaluated against Cynomolgus monkey at a dose of 15 mg/kg after po administration; format: ADME, organism-based; parameters: dose 15 mg/kg, route oral; details: cercopithecidae, in vivo
[23] = Maximum concentration in plasma was evaluated in Sprague-Dawley rats at a dose of 15 mg/kg after po administration; format: ADME, organism-based; parameters: dose 15 mg/kg, route oral; details: rat

- IC50 [1]: 6 µM
- IC50 [2]: 93 µM
SMILES: CSc1ccc(-c2cscc2-c2ccc(S(C)(=O)=O)cc2)cc1

- IC50 [1]: 130 µM
- IC50 [2]: 200 µM
SMILES: CCOC(=O)CCc1cc(-c2ccc(S(C)(=O)=O)cc2)c(-c2ccc(F)cc2)s1

- IC50 [1]: 49 µM
- IC50 [2]: > 300 µM
SMILES: CS(=O)(=O)c1ccc(-c2cc(CC#N)sc2-c2ccc(F)cc2)cc1

- IC50 [1]: > 300 µM
- IC50 [2]: 100 µM
SMILES: CCOC(=O)/C=C/c1cc(-c2ccc(S(C)(=O)=O)cc2)c(-c2ccc(F)cc2)s1

- AUC (Canis familiaris [3]): 1.5 µg·h/mL
- AUC [4]: 56000 ng·h/mL
- half-life [5]: 1320 min
- half-life [6]: 996 min
- Cmax [7]: 60.5 ng/mL
- Tmax [8]: 24 h
- Cmax [9]: 698 ng/mL
- bioavailability [10]: 30.4%
- AUC [11]: 3240 µg·h/mL
- bioavailability [12]: 4.4%
- Vd [13]: 6.3 L/kg
- bioavailability [14]: 75%
- T max (Canis familiaris [15]): 1 h
- clearance [16]: 3.63 mL/min/kg
- Tmax [17]: 8 h
- T1/2 (Canis familiaris [18]): 6 h
- half-life [19]: 12.2 days
- Tmax [20]: 3 h
- Cmax (Canis familiaris [21]): 411 ng/mL
- half-life [22]: 1910 min
- Cmax [23]: 2400 ng/mL
SMILES: CS(=O)(=O)c1ccc(-c2cc(Br)sc2-c2ccc(F)cc2)cc1 [DUP-697]

- IC50 [1]: 19 µM
- IC50 [2]: > 1000 µM
SMILES: CS(=O)(=O)c1ccc(-c2c(-c3ccccc3)sc3c2CCCC3)cc1

- half-life [5]: 858 min
- half-life [6]: 726 min
- Vd [13]: 19 L/kg
- bioavailability [14]: 3.4%
- clearance [16]: 158 mL/min/kg
- Tmax [17]: 4 h
- IC50 [1]: 8 µM
- IC50 [2]: 490 µM
- Cmax [23]: 8 ng/mL
SMILES: CS(=O)(=O)c1ccc(-c2ccsc2-c2ccc(F)cc2)cc1

- IC50 [1]: 200 µM
- IC50 [2]: > 300 µM
SMILES: CS(=O)(=O)c1ccc(-c2cc(S(C)(=O)=O)sc2-c2ccc(F)cc2)cc1

- IC50 [1]: 5 µM
- IC50 [2]: > 1000 µM
SMILES: COc1ccc(-c2cscc2-c2ccc(S(C)(=O)=O)cc2)cc1

- IC50 [1]: 86 µM
- IC50 [2]: 293 µM
SMILES: CS(=O)(=O)c1ccc(-c2ccsc2-c2ccc(O)cc2)cc1

- IC50 [1]: 4 µM
- IC50 [2]: > 1000 µM
SMILES: CS(=O)(=O)c1ccc(-c2ccsc2-c2ccccc2)cc1

- half-life [5]: 1160 min
- Vd [13]: 16.8 L/kg
- bioavailability [14]: 0.9%
- clearance [16]: 28.2 mL/min/kg
- Tmax [17]: 0.7 h
- IC50 [1]: 10 µM
- IC50 [2]: 80 µM
- Cmax [23]: 20 ng/mL
SMILES: Cc1cc(-c2ccc(S(C)(=O)=O)cc2)c(-c2ccc(F)cc2)s1

- IC50 [1]: > 300 µM
- IC50 [2]: > 300 µM
SMILES: CS(=O)(=O)c1ccc(-c2cscc2-c2ccc(S(C)(=O)=O)cc2)cc1

- IC50 [1]: 13 µM
- IC50 [2]: > 1000 µM
SMILES: Cc1ccc(-c2sccc2-c2ccc(S(C)(=O)=O)cc2)cc1

- IC50 [1]: 14 µM
- IC50 [2]: > 1000 µM
SMILES: CS(=O)(=O)c1ccc(-c2cc([N+](=O)[O-])sc2-c2ccc(F)cc2)cc1

- IC50 [1]: 4 µM
- IC50 [2]: 438 µM
SMILES: Cc1ccc(-c2cscc2-c2ccc(S(C)(=O)=O)cc2)cc1

- IC50 [1]: 3 µM
- IC50 [2]: 6 µM
SMILES: CS(=O)(=O)c1ccc(-c2cc(N)sc2-c2ccc(F)cc2)cc1

- half-life [5]: 296 min
- Vd [13]: 19.6 L/kg
- bioavailability [14]: 20%
- clearance [16]: 51.3 mL/min/kg
- Tmax [17]: 4.2 h
- IC50 [1]: > 300 µM
- IC50 [2]: 28 µM
- Cmax [23]: 100 ng/mL
SMILES: c1ccc(-c2ccsc2-c2ccccc2)cc1

- IC50 [1]: 101 µM
- IC50 [2]: 15 µM
SMILES: CSc1ccc(-c2cscc2-c2ccc(SC)cc2)cc1

- half-life [5]: 102 min
- Vd [13]: 3.08 L/kg
- bioavailability [14]: 60%
- clearance [16]: 35.8 mL/min/kg
- Tmax [17]: 0.25 h
- IC50 [1]: 11 µM
- IC50 [2]: > 1000 µM
- Cmax [23]: 1430 ng/mL
SMILES: CS(=O)(=O)c1ccc(-c2ccccc2-c2ccccc2)cc1

- IC50 [1]: 66 µM
- IC50 [2]: > 300 µM
SMILES: CS(=O)(=O)c1ccc(-c2cc(Sc3ccccc3)sc2-c2ccc(F)cc2)cc1

- IC50 [1]: 5 µM
- IC50 [2]: 48 µM
SMILES: COc1ccc(-c2sccc2-c2ccc(S(C)(=O)=O)cc2)cc1

- IC50 [1]: > 300 µM
- IC50 [2]: 12 µM
SMILES: CS(=O)(=O)c1ccc(-c2cc(CCC(=O)O)sc2-c2ccc(F)cc2)cc1

- IC50 [1]: 8 µM
- IC50 [2]: 674 µM
SMILES: CS(=O)(=O)c1ccc(-c2cscc2-c2ccc(F)cc2)cc1

- IC50 [1]: 4 µM
- IC50 [2]: > 1000 µM
SMILES: CS(=O)(=O)c1ccc(-c2cscc2-c2ccccc2)cc1
